Experimental data published in patent publication US5770178A, “Metal chelate forming peptides and use thereof” (Nihon Medi-Physics Co., Ltd., priority 1994, dated 1998).
Where no end group is shown, it is not given here.

Experiments:
[1] = system: Tumor cells HEp2 (Human Epidermoid Carcinoma); experiment: Imaging of tumor in model mouse, tumor/muscle radioactivity ratio; assay type: in vivo, BALB/C nude mouse; conditions: i.v.
Protocol: Tumor cells HEp2 (5×10^6 cells, Human Epidermoid Carcinoma; ATCC No. CCL 23) were suspended in 1.0 ml of medium (Minimum essential medium (Eagle's) with Earle's BSS, 90% fetal bovine serum, 10%), and 100 μl of the suspension was subcutaneously injected to BALB/C nude mouse (6 weeks age) at the body side. […] Five and 20 minutes after the injection, the animal was imaged with a gamma camera.
Immediately after the imaging, the animal was sacrificed and examined for the distribution of the radioactivity in each organ using NaI single channel analyzer to determine a ratio of the radioactivity in tumor site to the radioactivity in muscle site (T/B ratio).

[2] = system: inflammation site (Staphylococcus aureus); conditions: S. aureus inflammation rat, i.v.
Protocol: Staphylococcus aureus 10^8 cells were suspended in 1 ml of physiological saline, and 100 μl of the suspension was intramuscularly administered to SD rats weighing about 220 g at the right calf. […] Thirty and 120 minutes after the peptide was injected, the animal was imaged with a gamma camera. Regions of interest were selected from the obtained image to determine a ratio T/B of the radioactivity in inflammation site (T) to the radioactivity in normal site (B).

Substance	Imaging of tumor site (gamma camera) ([1]; 20 minutes after injection)	ratio of the radioactivity in tumor site to the radioactivity in muscle site (T/B ratio) ([1]; twenty minutes after injection, n=3)	Imaging of inflammation site (gamma camera) ([2]; 30 and 120 minutes after injection)	ratio T/B of the radioactivity in inflammation site (T) to the radioactivity in normal site (B) ([2]; regions of interest of image, n=6)
Tc-99m-KYCAREPPTRTNAYWGQG (also: Tc-99m label)	clearly imaged	4.50±0.71	–	–
Tc-99m-KYCGGKTKPREQQYNSTYRVV-NH2	–	–	clearly imaged	3.26±0.18
